Measured values from PMC6704710, “Preclinical evaluation of 3D185, a novel potent inhibitor of FGFR1/2/3 and CSF-1R, in FGFR-dependent and macrophage-dominant cancer models” (Journal of Experimental & Clinical Cancer Research : CR, 2019).

What was measured:
Assay in all cases: Eurofins kinase panel
Assay type in all cases: biochemical
Details in all cases: read-out: Inhibition rate (%)
[1] = biological target: T1, CaMKIIδ(h) (Homo sapiens, UniProt Q13557)
T1 construct: purchased Eurofins (KinaseProfiler)

[2] = biological target: T2, ARK5(h) (Homo sapiens, UniProt O60285)
T2 construct: purchased Eurofins (KinaseProfiler)
T2 sequence (O60285 1-661): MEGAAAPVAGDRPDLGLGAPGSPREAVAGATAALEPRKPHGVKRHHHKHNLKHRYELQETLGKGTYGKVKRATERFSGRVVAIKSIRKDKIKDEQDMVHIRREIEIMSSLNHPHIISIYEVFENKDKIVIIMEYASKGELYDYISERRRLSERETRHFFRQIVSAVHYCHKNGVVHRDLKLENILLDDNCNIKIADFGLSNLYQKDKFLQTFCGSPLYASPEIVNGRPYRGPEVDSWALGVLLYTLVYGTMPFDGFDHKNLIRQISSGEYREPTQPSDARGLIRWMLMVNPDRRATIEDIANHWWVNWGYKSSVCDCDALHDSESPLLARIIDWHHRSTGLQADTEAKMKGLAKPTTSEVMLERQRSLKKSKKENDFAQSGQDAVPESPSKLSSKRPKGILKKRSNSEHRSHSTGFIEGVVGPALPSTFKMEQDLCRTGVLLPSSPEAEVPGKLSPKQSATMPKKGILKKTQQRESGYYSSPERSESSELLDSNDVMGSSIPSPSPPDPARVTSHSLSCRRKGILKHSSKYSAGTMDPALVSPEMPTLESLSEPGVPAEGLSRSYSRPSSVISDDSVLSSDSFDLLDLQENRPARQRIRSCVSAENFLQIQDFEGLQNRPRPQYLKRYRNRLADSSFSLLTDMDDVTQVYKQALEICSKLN

[3] = biological target: T3, PDK1(h) (Homo sapiens, UniProt O15530)
T3 construct: purchased Eurofins (KinaseProfiler)
T3 sequence (O15530 1-556): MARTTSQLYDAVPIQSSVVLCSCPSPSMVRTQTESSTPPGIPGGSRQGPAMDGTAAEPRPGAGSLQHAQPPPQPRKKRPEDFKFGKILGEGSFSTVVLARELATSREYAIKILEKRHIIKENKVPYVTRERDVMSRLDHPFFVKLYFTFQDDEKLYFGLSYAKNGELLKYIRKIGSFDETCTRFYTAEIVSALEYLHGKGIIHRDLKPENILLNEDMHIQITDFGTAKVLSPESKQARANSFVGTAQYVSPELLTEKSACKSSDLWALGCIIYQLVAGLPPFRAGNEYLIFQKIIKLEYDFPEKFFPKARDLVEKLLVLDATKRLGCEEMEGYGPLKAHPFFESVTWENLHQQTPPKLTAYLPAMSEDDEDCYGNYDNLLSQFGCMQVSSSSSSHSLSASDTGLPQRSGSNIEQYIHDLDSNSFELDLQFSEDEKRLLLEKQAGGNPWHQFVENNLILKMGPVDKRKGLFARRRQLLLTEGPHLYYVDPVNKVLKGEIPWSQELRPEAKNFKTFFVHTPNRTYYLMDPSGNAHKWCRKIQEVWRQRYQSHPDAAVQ

[4] = biological target: T4, Fms(Y969C)(h) (Homo sapiens, UniProt P07333, Y969C)
T4 construct: purchased Eurofins (KinaseProfiler)

[5] = biological target: T5, MKK6(h) (Homo sapiens, UniProt P52564)
T5 construct: purchased Eurofins (KinaseProfiler)
T5 sequence (P52564 1-334): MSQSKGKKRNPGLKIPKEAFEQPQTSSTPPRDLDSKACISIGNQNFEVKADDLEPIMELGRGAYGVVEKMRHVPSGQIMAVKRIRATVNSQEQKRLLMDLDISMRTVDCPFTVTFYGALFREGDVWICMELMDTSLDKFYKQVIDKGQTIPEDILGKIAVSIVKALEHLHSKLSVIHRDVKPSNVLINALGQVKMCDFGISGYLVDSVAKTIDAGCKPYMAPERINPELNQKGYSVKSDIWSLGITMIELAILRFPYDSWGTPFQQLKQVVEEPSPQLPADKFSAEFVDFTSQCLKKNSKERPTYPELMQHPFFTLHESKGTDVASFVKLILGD

T4 sequence (P07333 20-972 Y969C): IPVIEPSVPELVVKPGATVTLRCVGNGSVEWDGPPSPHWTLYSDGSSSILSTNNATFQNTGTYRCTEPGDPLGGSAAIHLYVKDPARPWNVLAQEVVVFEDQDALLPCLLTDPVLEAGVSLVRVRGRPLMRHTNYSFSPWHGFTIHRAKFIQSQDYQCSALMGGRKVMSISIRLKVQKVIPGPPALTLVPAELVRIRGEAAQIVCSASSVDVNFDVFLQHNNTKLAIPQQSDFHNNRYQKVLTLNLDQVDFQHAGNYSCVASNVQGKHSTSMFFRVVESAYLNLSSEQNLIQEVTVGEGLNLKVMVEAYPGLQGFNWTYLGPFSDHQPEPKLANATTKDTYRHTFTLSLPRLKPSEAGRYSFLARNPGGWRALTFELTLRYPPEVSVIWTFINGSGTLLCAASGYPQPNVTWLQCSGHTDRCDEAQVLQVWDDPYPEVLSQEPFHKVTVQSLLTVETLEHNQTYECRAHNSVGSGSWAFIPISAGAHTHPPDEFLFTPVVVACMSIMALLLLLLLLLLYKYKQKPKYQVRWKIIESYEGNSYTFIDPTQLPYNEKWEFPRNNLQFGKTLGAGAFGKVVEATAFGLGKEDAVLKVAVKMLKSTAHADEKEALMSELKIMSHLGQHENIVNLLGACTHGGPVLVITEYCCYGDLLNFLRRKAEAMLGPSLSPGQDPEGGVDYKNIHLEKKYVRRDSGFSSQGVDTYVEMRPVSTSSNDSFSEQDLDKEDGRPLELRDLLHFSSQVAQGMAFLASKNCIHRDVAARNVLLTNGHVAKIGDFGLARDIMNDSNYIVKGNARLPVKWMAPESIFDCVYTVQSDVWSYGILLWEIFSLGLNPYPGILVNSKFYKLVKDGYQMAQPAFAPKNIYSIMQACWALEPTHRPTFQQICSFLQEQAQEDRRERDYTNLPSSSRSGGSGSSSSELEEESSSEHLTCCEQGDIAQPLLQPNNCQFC
T1 sequence (Q13557 whole entry): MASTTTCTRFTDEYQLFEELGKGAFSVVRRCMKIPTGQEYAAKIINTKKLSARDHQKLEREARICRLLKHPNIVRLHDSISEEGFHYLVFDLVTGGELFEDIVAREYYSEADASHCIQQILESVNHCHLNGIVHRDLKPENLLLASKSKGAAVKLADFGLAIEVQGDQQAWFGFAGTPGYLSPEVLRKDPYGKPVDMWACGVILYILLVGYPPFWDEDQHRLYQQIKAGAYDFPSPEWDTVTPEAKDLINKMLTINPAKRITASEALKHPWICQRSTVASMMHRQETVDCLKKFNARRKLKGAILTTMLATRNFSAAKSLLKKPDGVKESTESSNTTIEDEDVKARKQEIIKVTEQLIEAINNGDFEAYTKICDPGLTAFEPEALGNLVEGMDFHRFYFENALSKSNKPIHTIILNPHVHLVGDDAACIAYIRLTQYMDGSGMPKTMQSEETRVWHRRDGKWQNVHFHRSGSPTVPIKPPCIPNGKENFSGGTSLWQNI

`COc1cc(OC)c(Cl)c(-c2ccc3c(NC(=O)c4ccc(N5CCNC(C)(C)C5)cc4)n[nH]c3n2)c1Cl` [3D185] showed an inhibition at 0.01 µM ([1]; 10 nM) of -1%, an inhibition at 0.1 µM ([1]; 100 nM) of -3% and an inhibition at 1 µM ([1]; 1000 nM) of -3%. It also gave an inhibition at 0.01 µM ([2]; 10 nM) of 11%, an inhibition at 0.1 µM ([2]; 100 nM) of 16% and an inhibition at 1 µM ([2]; 1000 nM) of 13%. It also gave an inhibition at 0.01 µM ([3]; 10 nM) of -5%, an inhibition at 0.1 µM ([3]; 100 nM) of -14% and an inhibition at 1 µM ([3]; 1000 nM) of -4%. The inhibition at 0.01 µM ([4]; 10 nM) was 34%, the inhibition at 0.1 µM ([4]; 100 nM) was 75% and the inhibition at 1 µM ([4]; 1000 nM) was 95%. The inhibition at 0.01 µM ([5]; 10 nM) was 11%, the inhibition at 0.1 µM ([5]; 100 nM) was 0% and the inhibition at 1 µM ([5]; 1000 nM) was 2%.
